The values below are quoted from earlier work in patent US20110183941A1 (priority 2010, published 2011).

SMILES strings stand for the structures.

The conditions of this data set: at room temperature.

For the compound `O=C(O)CNCP(=O)(O)O` [glyphosate], the solubility was 1.5%.
